Measured values from PMC11167047 (Cell Death Discovery, 2024).

How the values were obtained:
Assay in all cases: kinome screen (33PanQinase)
Format in all cases: biochemical
PKCβ2 = biological target: T1, PKCβ2 (Homo sapiens, UniProt P05771)
T1 construct: purchased Reaction Biology Europe GmbH (formerly ProQinase)
Description: (§1) The Kinome Screening was performed by Reaction Biology Europe GmbH (http://reactionbiology.com; Freiburg i. Br., Germany).

EPHB1 = biological target: T2, EPHB1 (Homo sapiens, UniProt P54762)
T2 construct: purchased Reaction Biology Europe GmbH (formerly ProQinase)
T2 sequence (P54762 18-984): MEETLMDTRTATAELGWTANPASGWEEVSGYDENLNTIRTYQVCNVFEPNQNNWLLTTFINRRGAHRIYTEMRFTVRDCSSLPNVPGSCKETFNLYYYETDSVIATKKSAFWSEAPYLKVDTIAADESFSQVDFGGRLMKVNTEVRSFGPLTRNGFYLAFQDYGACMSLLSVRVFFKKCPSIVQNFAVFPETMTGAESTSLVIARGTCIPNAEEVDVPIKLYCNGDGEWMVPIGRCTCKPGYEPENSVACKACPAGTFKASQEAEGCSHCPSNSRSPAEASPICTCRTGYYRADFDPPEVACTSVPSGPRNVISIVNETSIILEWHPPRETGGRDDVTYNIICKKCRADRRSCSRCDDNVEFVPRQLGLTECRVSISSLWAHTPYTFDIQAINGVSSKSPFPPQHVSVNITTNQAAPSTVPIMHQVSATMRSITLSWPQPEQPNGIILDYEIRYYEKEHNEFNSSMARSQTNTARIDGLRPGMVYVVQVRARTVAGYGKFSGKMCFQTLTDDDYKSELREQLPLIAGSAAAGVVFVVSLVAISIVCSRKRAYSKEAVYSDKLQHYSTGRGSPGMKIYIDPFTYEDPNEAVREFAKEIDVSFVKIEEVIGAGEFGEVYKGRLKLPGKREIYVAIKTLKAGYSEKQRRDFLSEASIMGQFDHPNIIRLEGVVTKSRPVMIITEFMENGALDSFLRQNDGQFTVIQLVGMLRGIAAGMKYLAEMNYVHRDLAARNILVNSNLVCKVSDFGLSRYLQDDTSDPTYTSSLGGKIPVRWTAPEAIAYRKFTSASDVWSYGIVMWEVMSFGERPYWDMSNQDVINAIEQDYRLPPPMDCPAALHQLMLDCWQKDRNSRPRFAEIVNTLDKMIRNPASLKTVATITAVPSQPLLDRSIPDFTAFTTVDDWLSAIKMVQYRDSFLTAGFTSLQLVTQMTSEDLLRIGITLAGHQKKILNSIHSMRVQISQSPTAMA
Description: as §1

HRI = biological target: T3, HRI (Homo sapiens, UniProt Q9BQI3)
T3 construct: purchased Reaction Biology Europe GmbH (formerly ProQinase)
Description: as §1

MTOR = biological target: T4, MTOR (Homo sapiens, UniProt P42345)
T4 construct: purchased Reaction Biology Europe GmbH (formerly ProQinase)
Description: as §1

FER = biological target: T5, FER (Homo sapiens, UniProt P16591)
T5 construct: purchased Reaction Biology Europe GmbH (formerly ProQinase)
Description: as §1

STK23 = biological target: T6, STK23 (Homo sapiens, UniProt Q9UPE1)
T6 construct: purchased Reaction Biology Europe GmbH (formerly ProQinase)
Description: as §1

S6Kbeta = biological target: T7, S6Kbeta (Homo sapiens, UniProt Q9UBS0)
T7 construct: purchased Reaction Biology Europe GmbH (formerly ProQinase)
Description: as §1

RIPK5 = biological target: T8, RIPK5 (Homo sapiens, UniProt Q6XUX3)
T8 construct: purchased Reaction Biology Europe GmbH (formerly ProQinase)
T8 sequence (Q6XUX3 1-929): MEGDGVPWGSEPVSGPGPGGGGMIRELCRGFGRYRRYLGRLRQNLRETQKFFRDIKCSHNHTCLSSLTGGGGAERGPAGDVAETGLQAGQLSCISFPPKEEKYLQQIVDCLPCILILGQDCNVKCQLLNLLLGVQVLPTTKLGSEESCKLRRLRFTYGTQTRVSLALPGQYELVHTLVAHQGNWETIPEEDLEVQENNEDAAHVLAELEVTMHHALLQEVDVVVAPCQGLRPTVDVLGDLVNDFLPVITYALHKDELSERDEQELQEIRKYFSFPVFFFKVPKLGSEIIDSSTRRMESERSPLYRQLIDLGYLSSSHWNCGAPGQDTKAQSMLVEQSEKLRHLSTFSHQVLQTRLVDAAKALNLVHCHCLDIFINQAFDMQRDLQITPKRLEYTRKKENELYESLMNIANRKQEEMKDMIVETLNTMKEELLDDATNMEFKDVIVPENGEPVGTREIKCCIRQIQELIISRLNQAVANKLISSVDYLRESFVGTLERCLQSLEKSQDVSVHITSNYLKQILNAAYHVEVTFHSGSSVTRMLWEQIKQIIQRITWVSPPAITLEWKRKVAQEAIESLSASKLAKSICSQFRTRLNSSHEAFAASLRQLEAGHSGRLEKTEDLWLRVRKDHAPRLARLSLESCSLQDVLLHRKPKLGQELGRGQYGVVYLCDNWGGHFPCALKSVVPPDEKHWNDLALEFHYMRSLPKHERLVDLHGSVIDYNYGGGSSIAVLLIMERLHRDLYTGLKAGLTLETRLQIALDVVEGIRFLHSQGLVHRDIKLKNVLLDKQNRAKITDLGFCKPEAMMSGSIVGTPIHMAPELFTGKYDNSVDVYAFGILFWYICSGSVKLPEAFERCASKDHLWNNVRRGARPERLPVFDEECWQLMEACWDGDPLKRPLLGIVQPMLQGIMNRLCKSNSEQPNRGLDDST
Description: as §1

ROCK2 = biological target: T9, ROCK2 (Homo sapiens, UniProt O75116)
T9 construct: purchased Reaction Biology Europe GmbH (formerly ProQinase)
Description: as §1

CK2α2 = biological target: T10, CK2α2 (Homo sapiens, UniProt P19784)
T10 construct: purchased Reaction Biology Europe GmbH (formerly ProQinase)
Description: as §1

MKK6 SDTD = biological target: T11, MKK6 SDTD (Homo sapiens, UniProt P52564, S207D/T211D)
T11 construct: purchased Reaction Biology Europe GmbH (formerly ProQinase)
T11 sequence (P52564 1-334 S207D/T211D): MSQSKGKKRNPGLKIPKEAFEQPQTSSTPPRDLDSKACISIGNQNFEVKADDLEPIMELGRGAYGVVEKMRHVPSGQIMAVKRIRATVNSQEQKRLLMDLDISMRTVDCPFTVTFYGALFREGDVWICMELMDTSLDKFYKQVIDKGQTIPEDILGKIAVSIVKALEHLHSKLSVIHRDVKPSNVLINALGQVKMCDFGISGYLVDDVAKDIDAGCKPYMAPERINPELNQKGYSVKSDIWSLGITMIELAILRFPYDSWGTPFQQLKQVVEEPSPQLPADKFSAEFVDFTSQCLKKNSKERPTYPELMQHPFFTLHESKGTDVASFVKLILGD
Description: as §1

T7 sequence (Q9UBS0 whole entry): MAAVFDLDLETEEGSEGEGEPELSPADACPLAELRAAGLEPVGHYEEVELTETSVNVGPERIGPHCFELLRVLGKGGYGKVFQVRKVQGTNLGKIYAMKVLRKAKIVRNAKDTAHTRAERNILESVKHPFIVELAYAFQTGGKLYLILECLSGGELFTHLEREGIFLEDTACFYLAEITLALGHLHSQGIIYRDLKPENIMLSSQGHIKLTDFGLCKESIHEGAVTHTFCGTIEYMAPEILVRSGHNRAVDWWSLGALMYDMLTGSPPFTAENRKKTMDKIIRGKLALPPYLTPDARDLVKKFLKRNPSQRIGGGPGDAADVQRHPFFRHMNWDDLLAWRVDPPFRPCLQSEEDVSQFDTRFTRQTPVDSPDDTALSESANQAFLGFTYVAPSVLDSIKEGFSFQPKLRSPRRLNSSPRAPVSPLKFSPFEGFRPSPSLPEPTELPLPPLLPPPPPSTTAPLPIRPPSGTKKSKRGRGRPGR
T1 sequence (P05771 1-673 isoform P05771-2): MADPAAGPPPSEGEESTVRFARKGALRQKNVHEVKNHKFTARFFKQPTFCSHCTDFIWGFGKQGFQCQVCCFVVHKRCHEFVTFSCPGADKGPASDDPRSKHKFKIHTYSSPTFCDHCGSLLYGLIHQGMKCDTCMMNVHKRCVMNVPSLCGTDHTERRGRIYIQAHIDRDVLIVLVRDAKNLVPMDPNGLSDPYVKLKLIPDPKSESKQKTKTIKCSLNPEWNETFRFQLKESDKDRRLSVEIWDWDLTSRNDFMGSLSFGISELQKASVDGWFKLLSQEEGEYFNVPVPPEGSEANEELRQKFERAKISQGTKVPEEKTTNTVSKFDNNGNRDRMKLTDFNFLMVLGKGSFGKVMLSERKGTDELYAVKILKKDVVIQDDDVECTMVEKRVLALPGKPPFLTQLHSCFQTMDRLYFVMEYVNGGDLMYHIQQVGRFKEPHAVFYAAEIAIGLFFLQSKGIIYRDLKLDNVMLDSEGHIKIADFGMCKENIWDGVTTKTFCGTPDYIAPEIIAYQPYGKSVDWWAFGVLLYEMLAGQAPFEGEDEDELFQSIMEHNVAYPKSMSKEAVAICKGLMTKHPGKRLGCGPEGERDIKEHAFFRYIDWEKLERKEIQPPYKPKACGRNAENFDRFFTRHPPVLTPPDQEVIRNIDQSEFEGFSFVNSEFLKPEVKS
T9 sequence (O75116 whole entry): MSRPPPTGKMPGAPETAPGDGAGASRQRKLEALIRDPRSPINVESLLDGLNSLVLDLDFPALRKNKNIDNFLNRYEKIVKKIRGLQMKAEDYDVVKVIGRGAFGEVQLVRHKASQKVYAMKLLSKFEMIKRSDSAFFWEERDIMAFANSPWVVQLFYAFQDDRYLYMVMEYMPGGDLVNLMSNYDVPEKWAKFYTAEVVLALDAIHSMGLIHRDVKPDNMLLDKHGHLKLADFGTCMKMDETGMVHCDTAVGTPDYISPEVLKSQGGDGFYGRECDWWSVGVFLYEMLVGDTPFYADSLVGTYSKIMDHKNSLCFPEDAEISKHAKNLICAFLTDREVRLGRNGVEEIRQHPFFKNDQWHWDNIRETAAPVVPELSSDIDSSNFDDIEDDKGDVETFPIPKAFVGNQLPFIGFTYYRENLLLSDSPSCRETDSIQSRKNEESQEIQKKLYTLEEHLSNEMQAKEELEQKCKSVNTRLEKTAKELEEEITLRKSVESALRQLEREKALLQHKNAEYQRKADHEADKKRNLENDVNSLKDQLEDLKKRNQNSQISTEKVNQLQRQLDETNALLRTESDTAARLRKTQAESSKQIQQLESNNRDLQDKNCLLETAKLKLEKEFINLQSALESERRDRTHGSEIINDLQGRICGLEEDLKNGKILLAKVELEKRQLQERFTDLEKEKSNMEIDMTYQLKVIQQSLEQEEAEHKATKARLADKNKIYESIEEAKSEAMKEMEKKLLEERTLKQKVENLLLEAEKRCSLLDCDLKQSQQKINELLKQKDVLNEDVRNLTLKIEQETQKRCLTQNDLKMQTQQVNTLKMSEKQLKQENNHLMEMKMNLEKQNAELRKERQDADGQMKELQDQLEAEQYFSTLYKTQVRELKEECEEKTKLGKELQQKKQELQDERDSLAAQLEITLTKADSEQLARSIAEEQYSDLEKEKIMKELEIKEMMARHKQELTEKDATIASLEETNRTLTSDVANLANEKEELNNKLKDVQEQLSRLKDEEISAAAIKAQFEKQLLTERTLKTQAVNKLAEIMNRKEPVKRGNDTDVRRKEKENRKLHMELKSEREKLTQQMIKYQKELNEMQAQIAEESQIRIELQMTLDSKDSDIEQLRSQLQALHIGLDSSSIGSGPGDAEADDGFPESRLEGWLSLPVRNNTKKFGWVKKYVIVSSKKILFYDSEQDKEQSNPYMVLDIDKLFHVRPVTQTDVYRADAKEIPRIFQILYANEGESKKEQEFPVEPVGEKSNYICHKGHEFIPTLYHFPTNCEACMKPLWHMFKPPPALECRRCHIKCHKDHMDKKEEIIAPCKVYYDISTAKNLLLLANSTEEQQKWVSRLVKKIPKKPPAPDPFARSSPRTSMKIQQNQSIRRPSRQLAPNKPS
T6 sequence (Q9UPE1 whole entry): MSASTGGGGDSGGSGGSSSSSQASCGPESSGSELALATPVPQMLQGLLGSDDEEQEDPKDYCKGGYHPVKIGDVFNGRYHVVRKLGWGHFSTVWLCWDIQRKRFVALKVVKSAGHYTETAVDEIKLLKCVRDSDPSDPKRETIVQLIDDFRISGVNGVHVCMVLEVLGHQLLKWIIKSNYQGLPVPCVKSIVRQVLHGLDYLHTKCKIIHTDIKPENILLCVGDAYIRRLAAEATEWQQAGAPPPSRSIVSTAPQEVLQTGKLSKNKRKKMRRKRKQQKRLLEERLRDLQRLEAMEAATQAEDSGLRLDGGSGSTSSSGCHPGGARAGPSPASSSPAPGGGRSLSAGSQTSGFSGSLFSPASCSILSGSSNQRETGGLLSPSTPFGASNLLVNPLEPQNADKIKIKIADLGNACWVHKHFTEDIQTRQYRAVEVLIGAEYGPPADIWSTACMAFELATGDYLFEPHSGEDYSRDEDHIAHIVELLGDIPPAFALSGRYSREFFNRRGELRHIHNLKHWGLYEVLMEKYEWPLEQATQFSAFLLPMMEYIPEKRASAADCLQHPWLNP
T5 sequence (P16591 whole entry): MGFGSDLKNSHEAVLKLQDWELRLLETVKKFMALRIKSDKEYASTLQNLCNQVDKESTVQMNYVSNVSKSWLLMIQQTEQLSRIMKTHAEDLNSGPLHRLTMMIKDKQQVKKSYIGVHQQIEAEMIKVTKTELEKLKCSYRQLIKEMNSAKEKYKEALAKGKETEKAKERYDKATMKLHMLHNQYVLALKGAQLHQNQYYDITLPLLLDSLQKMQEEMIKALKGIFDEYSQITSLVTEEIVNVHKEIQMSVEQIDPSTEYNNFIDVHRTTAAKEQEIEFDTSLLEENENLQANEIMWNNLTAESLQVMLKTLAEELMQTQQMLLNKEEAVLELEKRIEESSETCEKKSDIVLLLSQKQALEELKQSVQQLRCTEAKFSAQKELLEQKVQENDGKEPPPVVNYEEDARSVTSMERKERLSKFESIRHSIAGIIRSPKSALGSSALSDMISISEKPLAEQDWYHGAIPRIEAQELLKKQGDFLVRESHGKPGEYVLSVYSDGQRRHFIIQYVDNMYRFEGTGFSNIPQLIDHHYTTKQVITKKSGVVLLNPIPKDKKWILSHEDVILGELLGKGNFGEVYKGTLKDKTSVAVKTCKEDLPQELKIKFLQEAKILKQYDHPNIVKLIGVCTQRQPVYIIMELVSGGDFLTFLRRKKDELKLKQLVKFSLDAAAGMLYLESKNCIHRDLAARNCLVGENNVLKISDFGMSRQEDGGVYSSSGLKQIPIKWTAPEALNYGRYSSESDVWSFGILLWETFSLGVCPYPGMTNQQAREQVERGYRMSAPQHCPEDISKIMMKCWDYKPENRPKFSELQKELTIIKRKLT
T10 sequence (P19784 whole entry): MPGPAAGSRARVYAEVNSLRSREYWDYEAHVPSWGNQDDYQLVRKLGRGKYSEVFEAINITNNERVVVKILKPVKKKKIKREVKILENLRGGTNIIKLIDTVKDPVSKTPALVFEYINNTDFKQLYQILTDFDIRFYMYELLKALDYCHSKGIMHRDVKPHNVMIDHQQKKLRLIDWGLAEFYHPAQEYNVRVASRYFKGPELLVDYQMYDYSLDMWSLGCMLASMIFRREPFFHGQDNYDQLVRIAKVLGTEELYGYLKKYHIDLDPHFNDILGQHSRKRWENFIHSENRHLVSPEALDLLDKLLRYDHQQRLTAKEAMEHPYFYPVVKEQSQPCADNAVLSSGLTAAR
T3 sequence (Q9BQI3 whole entry): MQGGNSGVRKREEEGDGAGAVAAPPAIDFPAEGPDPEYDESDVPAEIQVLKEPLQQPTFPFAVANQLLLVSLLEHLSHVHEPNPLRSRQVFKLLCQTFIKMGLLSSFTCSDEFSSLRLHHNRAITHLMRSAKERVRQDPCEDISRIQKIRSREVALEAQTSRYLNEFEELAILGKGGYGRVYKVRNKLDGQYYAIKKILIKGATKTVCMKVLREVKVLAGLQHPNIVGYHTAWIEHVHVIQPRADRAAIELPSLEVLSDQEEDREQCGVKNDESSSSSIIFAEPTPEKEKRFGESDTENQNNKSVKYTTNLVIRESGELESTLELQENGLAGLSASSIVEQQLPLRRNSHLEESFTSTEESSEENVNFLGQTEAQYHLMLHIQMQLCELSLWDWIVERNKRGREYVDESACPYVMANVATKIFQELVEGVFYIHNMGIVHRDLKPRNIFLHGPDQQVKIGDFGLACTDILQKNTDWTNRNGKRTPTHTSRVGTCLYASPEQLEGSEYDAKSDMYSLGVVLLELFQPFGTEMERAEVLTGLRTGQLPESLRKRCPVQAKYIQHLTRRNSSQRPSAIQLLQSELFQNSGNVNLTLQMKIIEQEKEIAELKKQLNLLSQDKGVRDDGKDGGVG

| Structure (SMILES) | residual kinase activity (PKCβ2; 0.3 µM) | residual kinase activity (EPHB1; 0.3 µM) | residual kinase activity (HRI; 0.3 µM) | residual kinase activity (MTOR; 0.3 µM) | residual kinase activity (FER; 0.3 µM) | residual kinase activity (STK23; 0.3 µM) | residual kinase activity (S6Kbeta; 0.3 µM) | residual kinase activity (RIPK5; 0.3 µM) | residual kinase activity (ROCK2; 0.3 µM) | residual kinase activity (CK2α2; 0.3 µM) | residual kinase activity (MKK6 SDTD; 0.3 µM) | further results |
| --- | --- | --- | --- | --- | --- | --- | --- | --- | --- | --- | --- | --- |
| COc1ccnc2[nH]cc(-c3cc(N)nc(N)c3)c12 [meriolin 16] | 71 % of control | 97 % of control | 90 % of control | 105 % of control | 58 % of control | 78 % of control | 103 % of control | 86 % of control | 1 % of control | 105 % of control | 87 % of control | residual kinase activity (PKCβ2; 0.03 µM): 106 % of control; residual kinase activity (EPHB1; 0.03 µM): 98 % of control; residual kinase activity (HRI; 0.03 µM): 98 % of control; residual kinase activity (MTOR; 0.03 µM): 91 % of control; residual kinase activity (FER; 0.03 µM): 63 % of control; residual kinase activity (STK23; 0.03 µM): 109 % of control; residual kinase activity (S6Kbeta; 0.03 µM): 89 % of control; residual kinase activity (RIPK5; 0.03 µM): 101 % of control; residual kinase activity (ROCK2; 0.03 µM): 12 % of control; residual kinase activity (CK2α2; 0.03 µM): 110 % of control; residual kinase activity (MKK6 SDTD; 0.03 µM): 77 % of control |
| c1ccc(CNc2cc(-c3c[nH]c4ncccc34)ccn2)cc1 [meriolin 36] | 51 % of control | 124 % of control | 93 % of control | 78 % of control | 66 % of control | 95 % of control | 87 % of control | 58 % of control | 1 % of control | 91 % of control | 63 % of control | residual kinase activity (PKCβ2; 3 µM): 11 % of control; residual kinase activity (EPHB1; 3 µM): 79 % of control; residual kinase activity (HRI; 3 µM): 71 % of control; residual kinase activity (MTOR; 3 µM): 24 % of control; residual kinase activity (FER; 3 µM): 22 % of control; residual kinase activity (STK23; 3 µM): 88 % of control; residual kinase activity (S6Kbeta; 3 µM): 67 % of control; residual kinase activity (RIPK5; 3 µM): 16 % of control; residual kinase activity (ROCK2; 3 µM): 0 % of control; residual kinase activity (CK2α2; 3 µM): 43 % of control; residual kinase activity (MKK6 SDTD; 3 µM): 30 % of control |
